Data taken from patent publication US11220516B2, “Nitric oxide-releasing antibiotics, methods of making, and methods of use” (University of Georgia Research Foundation, Inc., priority 2019, dated 2022).
Where two headings read alike, the source gives them in different places.

Columns and labels:
[1] = system: 48 h old preformed S. aureus biofilms; assay: Biofilm dispersal assay on CarboSil polymer films; type: cell-based, Staphylococcus aureus (ATCC 6538); details: for reduction in planktonic bacteria in solution: bacteria shed from 48 h S. aureus biofilm; for inhibition at 500 µM: Staphylococcus aureus, read-out: reduction of viable bacteria adhered on the films (biofilm)
Description: Biofilms were grown for 48 h on circular CarboSil polymer films fabricated with a surface area of 1 cm^2. Solutions of S. aureus were prepared by placing one colony of bacteria in Luria Broth and incubated at 37° C. until the solution reached approximately 10^6 to 10^8 CFU mL^−1. Each polymer film was suspended in 2 mL of the bacteria solution and the solution was replenished with a fresh bacteria solution at 24 h of incubation. For the duration of the study the samples were incubated on a shaker at 150 rpms. After 48 h, the films were removed from the bacteria solutions and each film was gently rinsed with 5 ml of sterile PBS to remove any planktonic bacteria. The films were next incubated with 1 mL their specified test solutions and each solution type was tested at n=4. Each test solution was prepared with sterilized PBS and calculated to contain either 500 μM of ampicillin, SNAP, or SNAPicillin. After 24 h, the polymer films were removed from the test solutions, gently rinsed with PBS to remove planktonic bacteria, and homogenized in sterile PBS to remove any viable bacteria from the biofilm. The collected bacteria were serially diluted, plated on LB agar, and incubated for 18 h to achieve countable CFUs for comparison. A similar procedure was then done for the planktonic bacteria suspended in the solution of the incubated films to observe viable bacteria that shed from the potentially dispersed biofilms.
While NO release from SNAP may have difficulties diffusing through agar for disk diffusion testing, it is extremely potent at dispersing biofilms. […] The polymer films were then immersed into solutions containing either ampicillin, SNAP, or SNAPicillin at a concentration of 500 μM and the adhered bacteria remaining on the film as well as the planktonic bacteria within the solutions were observed (FIGS. 7 and 8).

[2] = NO release kinetics of 500 μM solutions (Sievers 280i Nitric Oxide Analyzer); type: physicochemical; details: 500 μM in PBS (pH 7.4) with EDTA, 37° C., 4 h
Description: (§1) Real time NO release was measured using a Sievers 280i NOA (Nitric Oxide Analyzer). Polymer films containing SNAPicillin or SNAP were immersed in amber reaction vessels containing PBS (pH 7.4) with 100 μM EDTA to chelate any metal ion contaminants within the buffer. Solutions were continuously purged with a nitrogen sweep gas and bubbler to carry the NO from the solution directly to the NOA. In a separate NO releasing study, solutions containing 500 μM of either SNAPicillin or SNAP in PBS with EDTA were also tested under physiological conditions to obtain the stabilized NO release profile to compare passive release kinetics.
The NO release of the synthesized SNAPicillin was compared to pure SNAP by dissolving equimolar (500 μM) amounts of each into separate solutions of PBS (pH 7.4) containing 0.01 mM EDTA and placing them in an amber reaction vial submerged within a water bath at 37° C. while NO release was monitored in real time. Nitrogen gas was used to continuously purge the solution to examine the stabilized, passive release under these conditions. […] Although equimolar amounts of each component were used, the RSNO component on the SNAPicillin appears to be less reactive when compared to pure crystalline SNAP under physiological conditions.

[3] = system: S. aureus; assay: Zone of inhibition assay (agar diffusion) of blended CarboSil films; type: cell-based, Staphylococcus aureus (ATCC 6538); details: 8 mm diameter; for ZOI values against S. aureus: overnight at 37° C.
Description: Zone of inhibition (ZOI) testing was done on polymer films containing the same composition of either ampicillin, SNAP, or SNAPicillin used in the leachate and NOA studies. A standard agar diffusion protocol was followed and tested against S. aureus. A single colony of bacterium was suspended into LB and incubated at 37° C. for 14 h while being rotated at 150 rpm. The optical density of each bacterial culture was then measured at 600 nm using a UV-Vis spectrophotometer. The observed optical density was adjusted to 1×10^7 colony forming units per mL using a standard calibration curve of each corresponding bacteria. A sterile cotton swab was then used to dip into each culture media and spread onto premade LB-agar petri dishes. The polymer films of either ampicillin, SNAP, SNAPicillin, along with controls (diameter: 8 mm, thickness: 200 μm) were then placed on top of the petri dishes and allowed to incubate overnight at 37° C. The ZOI was then measured and compared the following day to observe the antimicrobial effects of synthesized SNAPicillin molecule within a hydrophobic matrix.
A significant advantage of using targeted antibiotics over NO releasing polymers is seen in its ability to prevent bacteria growth. […] To ensure the SNAP attachment to ampicillin was not interfering with this targeted potency, a zone of inhibition (ZOI) test against S. aureus was done. […] This trend has been seen in the past with NO releasing hydrophobic polymers, where the ZOI is extremely limited beyond the interface of the polymer itself.^32
The characterization of covalent attachment of SNAP was verified through FTIR (Fourier Transform Infrared Spectroscopy) and NMR (Nuclear Magnetic Resonance Spectroscopy) and its NO releasing characteristics were compared to pure, unmodified SNAP. The combination of both NO and ampicillin in one unique compound allows for the dispersal of biofilms while making them more susceptible to the antibiotic moiety. […]

[4] = NO release from blended CarboSil polymer films over 7 days and NO donor remaining (UV-VIS); type: physicochemical; details: for NO donor remaining within the CarboSil polymer films: 168 h
Description: as §1
A separate NO release study was also done by physically blending equimolar amounts into solutions of CarboSil, and solvent casting a thin polymer film to be analyzed. Since polymer films blended with SNAP are a common strategy to create a surface with controlled, localized NO release, a comparison of NO release was done using SNAPicillin containing polymer films to examine its potential as an alternative novel NO donor. The fabricated films were placed in PBS (pH 7.4) containing 0.01 mM EDTA at 37° C. to observe the real time NO releasing kinetics. […] This is contrary to the pure solutions that were previously placed under physiological conditions, where SNAP was able to have a higher initial release. The difference is most likely is due to the leaching rate of either SNAP or SNAPicillin from a hydrophobic polymer matrix.
The amount of NO donor remaining in the films was also quantified using UV-VIS after this time period to examine the potential release beyond the recorded 7 days. […] As mentioned previously, due to the larger molecular weight of SNAPicillin, it was able to stay within the CarboSil matrix for a longer period of time when compared to SNAP blended films. This further emphasizes the versatility of the SNAPicillin donor as a possible RSNO donor substitute for NO releasing polymers that require sustained or controlled release kinetics with the additional antimicrobial functionality.

[5] = SNAP leachate from blended CarboSil films in PBS (UV-vis absorbance at 340 nm); type: physicochemical; details: equimolar blend in CarboSil films, PBS at 37° C., end of 4 day study
Description: Leaching of SNAPicillin and SNAP was done by first blending equimolar amounts of the corresponding chemical (33.33 μmol mL^−1) into solutions of CarboSil dissolved in THF (50 mg mL^−1) and subsequently cast into Teflon molds to dry overnight. The dried films were then weighed and measured before being submerged into PBS. Quantification of SNAP leaching into solution was done by measuring absorbance at 340 nm via UV-vis analysis.
(§2) One issue holding back using the direct administration of NO donors as an effective therapeutic is its short half-life. To address this, a common method for controlling and directing the NO release of a donor in a localized and targeted area is to encapsulate it within a polymer. This strategy is also used for antibiotics and antiseptics as well, as catheters have been fabricated with physically blended drugs to combat and prevent infection.^28-30 One key advantage for modifying the ampicillin with SNAP was its change in solubility. A large majority of antibiotics are not soluble in organic solvents, limiting its ability to evenly disperse within polymer matrices when coated or impregnated within the bulk material. […] The polymer films were measured and weighed before being immersed in PBS at 37° C. and were periodically taken out to examine either SNAP or ampicillin leachates (FIGS. 3A-3B). […]

[6] = system: biofilms; details: as low as; cited from earlier work
[7] = Ampicillin leachate from blended CarboSil films in PBS with EDTA (alkaline potassium permanganate oxidation); type: physicochemical; details: equimolar blend in CarboSil films, PBS at 37° C., 4 days
From the text: Ampicillin eachate from CarboSil films was done by making polymer solutions with equimolar amounts of SNAPicillin and ampicillin. Ampicillin was first dissolve in a small amount of methanol before being added to CarboSil in THF solutions and then solvent casted into Teflon molds. Films were then weighed and immersed in PBS containing EDTA. Quantification of ampicillin leaching into solution was done via the oxidation reaction with alkaline potassium permanganate following a previously established protocol.^24
as §2, with “solubility.” for “solubility. A large majority of antibiotics are not soluble in organic solvents, limiting its ability to evenly disperse within polymer matrices when coated or impregnated within the bulk material.”

[8] = 500 μM solution in PBS, 24 h treatment
[9] = 500 μM solution in PBS, 24 h treatment, 48 h S. aureus biofilm

Structure (SMILES) | reduction in planktonic bacteria in solution [1, 8] | cumulative leaching from films, SNAP leaching study [5] | cumulative leaching from films, ampicillin study [7] | ZOI values against S. aureus [3] | also measured
CC(=O)N[C@H](C(=O)O)C(C)(C)SN=O (racemic) [SNAP, S-nitroso-N-acetylpenicillamine] | 96.2±1.15% | 1.307±0.536 μmol cm-2 | – | – | inhibition at 500 µM [1]: 99.2 ± 0.762%; stabilized passive NO release rate of solutions [2]: slightly higher rate of NO release than SNAPicillin solutions; zone of inhibition against S. aureus, in words [3]: only killing bacteria directly in contact with the film; NO donor remaining within the CarboSil polymer films ([4]; pH 7.4): 0.25±0.17%
[N]=O [NO, nitric oxide] | – | – | – | – | concentration of NO able to trigger the biofilm dispersal mechanism [6]: 450 pM
CC1(C)S[C@@H]2[C@H](NC(=O)[C@H](N)c3ccccc3)C(=O)N2[C@H]1C(=O)O [ampicillin] | 90.0±1.13% | – | 0.087±0.003 μmol cm^−2 | 34.5±1.50 mm | inhibition at 500 µM [1, 9]: 28.9 ± 5.89%
CC(=O)NC(C(=O)NC(C(=O)NC1C(=O)N2C1SC(C)(C)C2C(=O)O)c1ccccc1)C(C)(C)SN=O (stereo not drawn) [SNAPicillin] | 99.5±0.264% | 0.051±0.10 μmol cm-2 | 0.043±0.003 μmol cm^−2 | 34.0±1.40 mm | reduction of viable bacteria adhered on the films (biofilm) [1, 9]: 99.9±0.18%; NO donor remaining within the CarboSil polymer films [4]: 21.9±1.72%; NO flux from blended films ([4]; equimolar blend in CarboSil films, PBS (pH 7.4) with EDTA, 37° C., 7 days): higher NO fluxes at every time point when compared to SNAP
